Here are results for 13 molecules from patent publication US9499550B2 (BRISTOL-MYERS SQUIBB COMPANY, priority 2012, dated 2016).

Molecules are shown by their SMILES. Read-outs that look alike come from different tables or passages of the source. Bounds are passed on as bounds.

The term EC50 denotes the concentration that produces a half-maximal response.

Experiment [1] has as its system HCV genotype 1a (H77 strain) replicon in HUH-7 cells. Nature of the experiment: HCV replicon luciferase reporter assay, genotype 1a. The experiment is classed as cell-based. Particulars: Hepatitis C virus, Huh-7, 72 h, HCV genotype 1a replicon luciferase, 3 days incubation. In outline: (§1)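 Replicon inhibition for both genotypes was measured as Renilla luciferase signal (EnduRen, 7.5 μM final, 2 h) after 3-day, 37° C exposure of replicon-bearing HUH-7 cells in 4% FCS DMEM, 0.5% DMSO. The 1b construct carries S1179I; the 1a H77 construct carries P1496L and S2204I. Twenty-point, 3-fold dilutions were fitted four-parametrically for EC50, and CC50 was taken from multiplexed Cell Titer-Blue.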

Experiment [2] deals with HCV genotype 1b (Con1) replicon in HUH-7 cells. Nature of the experiment: HCV replicon luciferase reporter assay, genotype 1b. To be noted: Hepatitis C virus, Huh-7, 72 h, HCV genotype 1b replicon luciferase, 3 days incubation. The experiment is classed as cell-based. In outline: as §1
A general note: In antiviral work, replicon cells carry a viral genome segment that copies itself.

Regarding `COc1nnc(O[C@@H]2C[C@H]3C(=O)N[C@]4(C(=O)NS(=O)(=O)C5CC5)C[C@H]4/C=C\CC[C@H](C)C[C@@H](C)[C@H](NC(=O)OC(C)(C)C(F)(F)F)C(=O)N3C2)c2ccccc12` [Compound 5005, 1,1,1-trifluoro-2-methylpropan-2-yl((2R,6S,7R,9S,13aS,14aR,16aS,Z)-14a-((cyclopropylsulfonyl)carbamoyl)-2-((4-methoxyphthalazin-1-yl)oxy)-7,9-dimethyl-5,16-dioxo-1,2,3,5,6,7,8,9,10,11,13a,14,14a,15,16,16a-hexadecahydrocyclopropa[e]pyrrolo[1,2-a][1,4]diazacyclopentadecin-6-yl)carbamate], the EC50 in experiment [1] (read-out: LE_1a (EC50, range)) was less than 5.46 nM; in experiment [2] (read-out: LE_1b (EC50, range)), less than 5.46 nM.

On to `COc1nnc(O[C@@H]2C[C@H]3C(=O)N[C@]4(C(=O)NS(=O)(=O)C5CC5)C[C@H]4/C=C\CC[C@@H](C)C[C@@H](C)[C@H](NC(=O)OC(C)(C)C(F)(F)F)C(=O)N3C2)c2ccccc12` [Compound 5006, 1,1,1-trifluoro-2-methylpropan-2-yl((2R,6S,7R,9R,13aS,14aR,16aS,Z)-14a-((cyclopropylsulfonyl)carbamoyl)-2-((4-methoxyphthalazin-1-yl)oxy)-7,9-dimethyl-5,16-dioxo-1,2,3,5,6,7,8,9,10,11,13a,14,14a,15,16,16a-hexadecahydrocyclopropa[e]pyrrolo[1,2-a][1,4]diazacyclopentadecin-6-yl)carbamate], for which the EC50 was less than 5.46 nM in experiment [1] (read-out: LE_1a (EC50, range)) and less than 5.46 nM in experiment [2] (read-out: LE_1b (EC50, range)).

Take `COc1nnc(O[C@@H]2C[C@H]3C(=O)N[C@]4(C(=O)NS(=O)(=O)C5(C)CC5)C[C@H]4/C=C\CC[C@H](C)C[C@@H](C)[C@H](NC(=O)OC(C)(C)C(F)(F)F)C(=O)N3C2)c2ccccc12` [Compound 5007, 1,1,1-trifluoro-2-methylpropan-2-yl((2R,6S,7R,9S,13aS,14aR,16aS,Z)-2-((4-methoxyphthalazin-1-yl)oxy)-7,9-dimethyl-14a-(((1-methylcyclopropyl)sulfonyl)carbamoyl)-5,16-dioxo-1,2,3,5,6,7,8,9,10,11,13a,14,14a,15,16,16a-hexadecahydrocyclopropa[e]pyrrolo[1,2-a][1,4]diazacyclopentadecin-6-yl)carbamate]: the EC50 in experiment [1] (read-out: LE_1a (EC50, range)) was less than 5.46 nM; in experiment [2] (read-out: LE_1b (EC50, range)), less than 5.46 nM.

Consider `COc1nnc(O[C@@H]2C[C@H]3C(=O)N[C@]4(C(=O)NS(=O)(=O)C5(C)CC5)C[C@H]4/C=C\CC[C@@H](C)C[C@@H](C)[C@H](NC(=O)OC(C)(C)C(F)(F)F)C(=O)N3C2)c2ccccc12` [Compound 5008, 1,1,1-trifluoro-2-methylpropan-2-yl((2R,6S,7R,9R,13aS,14aR,16aS,Z)-2-((4-methoxyphthalazin-1-yl)oxy)-7,9-dimethyl-14a-(((1-methylcyclopropyl)sulfonyl)carbamoyl)-5,16-dioxo-1,2,3,5,6,7,8,9,10,11,13a,14,14a,15,16,16a-hexadecahydrocyclopropa[e]pyrrolo[1,2-a][1,4]diazacyclopentadecin-6-yl)carbamate], for which the EC50 is less than 5.46 nM in experiment [1] (read-out: LE_1a (EC50, range)) and less than 5.46 nM in experiment [2] (read-out: LE_1b (EC50, range)).

Regarding `[2H]C([2H])([2H])C(OC(=O)N[C@@H]1C(=O)N2C[C@H](Oc3nnc(OC)c4ccccc34)C[C@H]2C(=O)N[C@]2(C(=O)NS(=O)(=O)C3(C)CC3)C[C@H]2/C=C\CC[C@H](C)C[C@H]1C)(C([2H])([2H])[2H])C(F)(F)F` [Compound 5009], the EC50 in experiment [1] (read-out: LE_1a (EC50, range)) was less than 5.46 nM; in experiment [2] (read-out: LE_1b (EC50, range)) it was less than 5.46 nM.

In the case of `[2H]C([2H])([2H])C(OC(=O)N[C@@H]1C(=O)N2C[C@H](Oc3nnc(OC)c4ccccc34)C[C@H]2C(=O)N[C@]2(C(=O)NS(=O)(=O)C3(C)CC3)C[C@H]2/C=C\CC[C@@H](C)C[C@H]1C)(C([2H])([2H])[2H])C(F)(F)F` [Compound 5010], the EC50 in experiment [1] (read-out: LE_1a (EC50, range)) was less than 5.46 nM; in experiment [2] (read-out: LE_1b (EC50, range)) it was less than 5.46 nM.

Consider `COc1nnc(O[C@@H]2C[C@H]3C(=O)N[C@]4(C(=O)NS(=O)(=O)C5(C)CC5)C[C@H]4/C=C\CC[C@H](C)C[C@@H](C)[C@H](NC(=O)NC(C)(C)C)C(=O)N3C2)c2ccccc12` [Compound 5011, (2R,6S,7R,9S,13aS,14aR,16aS,Z)-6-(3-(tert-butyl)ureido)-2-((4-methoxyphthalazin-1-yl)oxy)-7,9-dimethyl-N-((1-methylcyclopropyl)sulfonyl)-5,16-dioxo-1,2,3,5,6,7,8,9,10,11,13a,14,14a,15,16,16a-hexadecahydrocyclopropa[e]pyrrolo[1,2-a][1,4]diazacyclopentadecine-14a-carboxamide], for which the EC50 in experiment [1] (read-out: LE_1a (EC50)) is 41.1 nM; in experiment [1] (read-out: LE_1a (EC50, range)) it was 4.82 to 103 nM; in experiment [2] (read-out: LE_1b (EC50)), 14.2 nM; in experiment [2] (read-out: LE_1b (EC50, range)), 4.82 to 103 nM.

With `COc1nnc(O[C@@H]2C[C@H]3C(=O)N[C@]4(C(=O)NS(=O)(=O)C5(C)CC5)C[C@H]4/C=C\CC[C@@H](C)C[C@@H](C)[C@H](NC(=O)NC(C)(C)C)C(=O)N3C2)c2ccccc12` [Compound 5012, (2R,6S,7R,9R,13aS,14aR,16aS,Z)-6-(3-(tert-butyl)ureido)-2-((4-methoxyphthalazin-1-yl)oxy)-7,9-dimethyl-N-((1-methylcyclopropyl)sulfonyl)-5,16-dioxo-1,2,3,5,6,7,8,9,10,11,13a,14,14a,15,16,16a-hexadecahydrocyclopropa[e]pyrrolo[1,2-a][1,4]diazacyclopentadecine-14a-carboxamide], the EC50 in experiment [1] (read-out: LE_1a (EC50, range)) is less than 5.46 nM; in experiment [2] (read-out: LE_1b (EC50, range)), less than 5.46 nM.

`COc1nnc(O[C@@H]2C[C@H]3C(=O)N[C@]4(C(=O)NS(=O)(=O)C5(C)CC5)C[C@H]4/C=C\CC[C@H](C)C[C@@H](C)[C@H](NC(=O)O[C@@H]4C[C@@H]5C[C@@H]5C4)C(=O)N3C2)c2ccccc12` [Compound 5013, (1R,3r,5S)-bicyclo[3.1.0]hexan-3-yl((2R,6S,7R,9S,13aS,14aR,16aS,Z)-2-((4-methoxyphthalazin-1-yl)oxy)-7,9-dimethyl-14a-(((1-methylcyclopropyl)sulfonyl)carbamoyl)-5,16-dioxo-1,2,3,5,6,7,8,9,10,11,13a,14,14a,15,16,16a-hexadecahydrocyclopropa[e]pyrrolo[1,2-a][1,4]diazacyclopentadecin-6-yl)carbamate]: the half-maximal effective concentration (EC50) is less than 5.46 nM in experiment [1] (read-out: LE_1a (EC50, range)) and less than 5.46 nM in experiment [2] (read-out: LE_1b (EC50, range)).

For the molecule `COc1nnc(O[C@@H]2C[C@H]3C(=O)N[C@]4(C(=O)NS(=O)(=O)C5(C)CC5)C[C@H]4/C=C\CC[C@@H](C)C[C@@H](C)[C@H](NC(=O)O[C@@H]4C[C@@H]5C[C@@H]5C4)C(=O)N3C2)c2ccccc12` [Compound 5014, (1R,3r,5S)-bicyclo[3.1.0]hexan-3-yl((2R,6S,7R,9R,13aS,14aR,16aS,Z)-2-((4-methoxyphthalazin-1-yl)oxy)-7,9-dimethyl-14a-(((1-methylcyclopropyl)sulfonyl)carbamoyl)-5,16-dioxo-1,2,3,5,6,7,8,9,10,11,13a,14,14a,15,16,16a-hexadecahydrocyclopropa[e]pyrrolo[1,2-a][1,4]diazacyclopentadecin-6-yl)carbamate], the EC50 was less than 5.46 nM in experiment [1] (read-out: LE_1a (EC50, range)) and less than 5.46 nM in experiment [2] (read-out: LE_1b (EC50, range)).

As for `COc1nnc(O[C@@H]2C[C@H]3C(=O)N[C@]4(C(=O)NS(=O)(=O)C5(C)CC5)C[C@H]4/C=C\CC[C@H](C)C[C@@H](C)[C@H](NC(=O)OC(C)(C)C)C(=O)N3C2)c2ccccc12` [Compound 5015, tert-butyl ((2R,6S,7R,9S,13aS,14aR,16aS,Z)-2-((4-methoxyphthalazin-1-yl)oxy)-7,9-dimethyl-14a-(((1-methylcyclopropyl)sulfonyl)carbamoyl)-5,16-dioxo-1,2,3,5,6,7,8,9,10,11,13a,14,14a,15,16,16a-hexadecahydrocyclopropa[e]pyrrolo[1,2-a][1,4]diazacyclopentadecin-6-yl)carbamate], the EC50 is 4.82 to 103 nM in experiment [1] (read-out: LE_1a (EC50, range)) and less than 5.46 nM in experiment [2] (read-out: LE_1b (EC50, range)).

As for `COc1nnc(O[C@@H]2C[C@H]3C(=O)N[C@]4(C(=O)NS(=O)(=O)C5(C)CC5)C[C@H]4/C=C\CC[C@@H](C)C[C@@H](C)[C@H](NC(=O)OC(C)(C)C)C(=O)N3C2)c2ccccc12` [Compound 5016, tert-butyl ((2R,6S,7R,9R,13aS,14aR,16aS,Z)-2-((4-methoxyphthalazin-1-yl)oxy)-7,9-dimethyl-14a-(((1-methylcyclopropyl)sulfonyl)carbamoyl)-5,16-dioxo-1,2,3,5,6,7,8,9,10,11,13a,14,14a,15,16,16a-hexadecahydrocyclopropa[e]pyrrolo[1,2-a][1,4]diazacyclopentadecin-6-yl)carbamate], the EC50 was less than 5.46 nM in experiment [1] (read-out: LE_1a (EC50, range)) and less than 5.46 nM in experiment [2] (read-out: LE_1b (EC50, range)).

As for `CC[C@@H]1C[C@@H](C)CC/C=C\[C@@H]2C[C@@]2(C(=O)NS(=O)(=O)C2(C)CC2)NC(=O)[C@@H]2C[C@@H](Oc3nnc(OC)c4ccccc34)CN2C(=O)[C@H]1NC(=O)OC(C)(C)C(F)(F)F` [Compound 5017, 1,1,1-trifluoro-2-methylpropan-2-yl((2R,6S,7R,9S,13aS,14aR,16aS,Z)-7-ethyl-2-((4-methoxyphthalazin-1-yl)oxy)-9-methyl-14a-(((1-methylcyclopropyl)sulfonyl)carbamoyl)-5,16-dioxo-1,2,3,5,6,7,8,9,10,11,13a,14,14a,15,16,16a-hexadecahydrocyclopropa[e]pyrrolo[1,2-a][1,4]diazacyclopentadecin-6-yl)carbamate], the EC50 is 4.82 to 103 nM in experiment [1] (read-out: LE_1a (EC50, range)) and less than 5.46 nM in experiment [2] (read-out: LE_1b (EC50, range)).
